Common to all, as to assay: relative viability (nuclei count vs DMSO), 5 days (fraction); higher = more cells survive
Compound in the assay “Quizartinib + AZD7762”: CC(C)(C)c1cc(NC(=O)Nc2ccc(-c3cn4c(n3)sc3cc(OCCN5CCOCC5)ccc34)cc2)no1 [Quizartinib] + NC(=O)Nc1cc(-c2cccc(F)c2)sc1C(=O)N[C@H]1CCCNC1 [AZD7762] (partner 0.2 µM)
In outline: (§1)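 Lung cancer cell lines were seeded in 1536-well plates and dosed by pin tool the next day, with either a single drug or a fixed anchor-drug dose combined with five library-drug doses (not always all listed) spaced in √10 steps. Five days later, one step fixed the cells and stained their nuclei (final 0.05% Triton X-100, 1% formaldehyde, 1 ug/ml Hoechst), and nuclei were counted on 4× images. Relative viability is the nuclei count in treated wells divided by the count in vehicle wells, and each value is the median of duplicate plates.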

Compound in the assay “Quizartinib + OSI-027”: CC(C)(C)c1cc(NC(=O)Nc2ccc(-c3cn4c(n3)sc3cc(OCCN5CCOCC5)ccc34)cc2)no1 [Quizartinib] + COc1cccc2cc(-c3nc([C@H]4CC[C@H](C(=O)O)CC4)n4ncnc(N)c34)[nH]c12 [OSI-027] (partner 0.5 µM)
In outline: as §1

Compound in the assay “Quizartinib + Tozasertib”: CC(C)(C)c1cc(NC(=O)Nc2ccc(-c3cn4c(n3)sc3cc(OCCN5CCOCC5)ccc34)cc2)no1 [Quizartinib] + Cc1cc(Nc2cc(N3CCN(C)CC3)nc(Sc3ccc(NC(=O)C4CC4)cc3)n2)n[nH]1 [Tozasertib] (partner 0.1 µM)
In short, it runs like this: as §1

Compound in the assay “YM155 + Alpelisib”: COCC[n+]1c2c(n(Cc3cnccn3)c1C)C(=O)c1ccccc1C2=O [YM155] + Cc1nc(NC(=O)N2CCC[C@H]2C(N)=O)sc1-c1ccnc(C(C)(C)C(F)(F)F)c1 [Alpelisib] (partner 2 µM)
In short, it runs like this:
as §1

Regarding HCC-827, the relative viability in the assay with Quizartinib + AZD7762 (first compound 0.001 µM) stood at 0.344; with Quizartinib + AZD7762 (first compound 0.003162 µM) it was 0.196; with Quizartinib + AZD7762 (first compound 0.03162 µM), 0.177; in the assay with Quizartinib + AZD7762 (first compound 0.1 µM), 0.247; with Quizartinib + OSI-027 (first compound 0.001 µM), 0.749; with Quizartinib + OSI-027 (first compound 0.003162 µM), 0.77. Besides, the relative viability in the assay with Quizartinib + OSI-027 (first compound 0.01 µM) worked out at 0.945; with Quizartinib + OSI-027 (first compound 0.03162 µM), 0.798; with Quizartinib + OSI-027 (first compound 0.1 µM), 0.79; in the assay with Quizartinib + Tozasertib (first compound 0.001 µM) it was 0.356; with Quizartinib + Tozasertib (first compound 0.003162 µM), 0.516; in the assay with Quizartinib + Tozasertib (first compound 0.01 µM), 0.458. In addition, the relative viability worked out at 0.405 with Quizartinib + Tozasertib (first compound 0.03162 µM); 0.411 with Quizartinib + Tozasertib (first compound 0.1 µM); 0.982 in the assay with YM155 + Alpelisib (first compound 0.002 µM); 1.04 with YM155 + Alpelisib (first compound 0.006325 µM); 1.06 in the assay with YM155 + Alpelisib (first compound 0.02 µM); 0.993 in the assay with YM155 + Alpelisib (first compound 0.06325 µM).
Take HOP-62: the relative viability in the assay with Quizartinib + AZD7762 (first compound 0.001 µM) was 0.639; with Quizartinib + AZD7762 (first compound 0.003162 µM), 0.529; with Quizartinib + AZD7762 (first compound 0.01 µM), 0.554; with Quizartinib + AZD7762 (first compound 0.03162 µM) it was 0.688; with Quizartinib + AZD7762 (first compound 0.1 µM), 0.463; in the assay with Quizartinib + OSI-027 (first compound 0.001 µM), 0.75. Further, the relative viability turned out to be 0.769 in the assay with Quizartinib + OSI-027 (first compound 0.003162 µM); 1.03 in the assay with Quizartinib + OSI-027 (first compound 0.01 µM); 0.87 with Quizartinib + OSI-027 (first compound 0.03162 µM); 0.847 in the assay with Quizartinib + OSI-027 (first compound 0.1 µM); 0.358 with Quizartinib + Tozasertib (first compound 0.001 µM); 0.363 with Quizartinib + Tozasertib (first compound 0.003162 µM). In addition, the relative viability in the assay with Quizartinib + Tozasertib (first compound 0.01 µM) was found to be 0.416; in the assay with Quizartinib + Tozasertib (first compound 0.03162 µM) it was 0.352; with Quizartinib + Tozasertib (first compound 0.1 µM), 0.33; in the assay with YM155 + Alpelisib (first compound 0.002 µM), 1.14; with YM155 + Alpelisib (first compound 0.006325 µM), 0.921; with YM155 + Alpelisib (first compound 0.02 µM) it was 0.633. Besides, in the assay with YM155 + Alpelisib (first compound 0.06325 µM), the relative viability worked out at 0.775.
In the case of IA-LM, the relative viability came out at 0.578 with YM155 + Alpelisib (first compound 0.002 µM), 0.907 with YM155 + Alpelisib (first compound 0.006325 µM), 0.738 with YM155 + Alpelisib (first compound 0.02 µM) and 0.644 with YM155 + Alpelisib (first compound 0.06325 µM).
As to LC-2-ad, the relative viability in the assay with Quizartinib + AZD7762 (first compound 0.001 µM) was 0.75; in the assay with Quizartinib + AZD7762 (first compound 0.003162 µM) it was 0.835; with Quizartinib + AZD7762 (first compound 0.01 µM) it was 0.91; with Quizartinib + AZD7762 (first compound 0.03162 µM), 0.883; in the assay with Quizartinib + AZD7762 (first compound 0.1 µM), 0.835; with Quizartinib + OSI-027 (first compound 0.001 µM), 0.842. Moreover, the relative viability was 0.866 in the assay with Quizartinib + OSI-027 (first compound 0.003162 µM); 0.757 with Quizartinib + OSI-027 (first compound 0.01 µM); 0.626 in the assay with Quizartinib + OSI-027 (first compound 0.1 µM); 0.373 with Quizartinib + Tozasertib (first compound 0.001 µM); 0.436 with Quizartinib + Tozasertib (first compound 0.003162 µM); 0.451 in the assay with Quizartinib + Tozasertib (first compound 0.01 µM). For the same cell line, the relative viability amounted to 0.451 with Quizartinib + Tozasertib (first compound 0.1 µM); 0.768 with YM155 + Alpelisib (first compound 0.002 µM); 0.977 with YM155 + Alpelisib (first compound 0.006325 µM); 1 in the assay with YM155 + Alpelisib (first compound 0.02 µM); 0.392 in the assay with YM155 + Alpelisib (first compound 0.06325 µM).
For LCLC-97TM1, the relative viability with Quizartinib + AZD7762 (first compound 0.001 µM) was 0.197; in the assay with Quizartinib + AZD7762 (first compound 0.003162 µM) it was 0.334; with Quizartinib + AZD7762 (first compound 0.01 µM), 0.325; in the assay with Quizartinib + AZD7762 (first compound 0.03162 µM), 0.179; in the assay with Quizartinib + AZD7762 (first compound 0.1 µM) it was 0.361; with Quizartinib + OSI-027 (first compound 0.001 µM), 0.567. Also, the relative viability with Quizartinib + OSI-027 (first compound 0.003162 µM) came out at 0.466; in the assay with Quizartinib + OSI-027 (first compound 0.01 µM), 0.538; with Quizartinib + OSI-027 (first compound 0.03162 µM), 0.588; with Quizartinib + OSI-027 (first compound 0.1 µM), 0.563; with Quizartinib + Tozasertib (first compound 0.001 µM), 0.183; in the assay with Quizartinib + Tozasertib (first compound 0.003162 µM) it was 0.218. In addition, the relative viability amounted to 0.172 in the assay with Quizartinib + Tozasertib (first compound 0.01 µM); 0.248 in the assay with Quizartinib + Tozasertib (first compound 0.03162 µM); 0.207 with Quizartinib + Tozasertib (first compound 0.1 µM); 0.297 in the assay with YM155 + Alpelisib (first compound 0.002 µM); 0.228 with YM155 + Alpelisib (first compound 0.006325 µM); 0.272 with YM155 + Alpelisib (first compound 0.02 µM). Moreover, the relative viability in the assay with YM155 + Alpelisib (first compound 0.06325 µM) worked out at 0.328.
